“And” between values parts separate entries of the source, which are not always exact repeats. Equal entries are not always repeated.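 Exposure lasted 48 hours, with cells grown in 96-well plates and compounds tested at five concentrations. GI50 = concentration required for 50% inhibition of growth. TGI marks complete inhibition of growth.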
What was measured:
Test in all cases: DTP human tumour cell line panel, 48 h
[1] = system: HCC-2998 colon
[2] = system: HCT-116 colon
[3] = system: HCT-15 colon
[4] = system: MCF7 breast
[5] = system: NCI-H460 lung
[6] = system: RPMI-8226 leukemia
[7] = system: RXF 393 renal
[8] = system: SN12C renal
[9] = system: SNB-19 CNS
[10] = system: SNB-75 CNS

`CCN1CCN(c2nc(C)cc(NCc3cc(Nc4ccnc5cc(Cl)ccc45)ccc3F)n2)CC1` gave a GI50 [1] of 1.78 µM, a TGI [1] of 3.89 µM and a GI50 [2] of 1.01 µM. The TGI [2] was 2.75 µM, the GI50 [3] was 1.46 µM and the TGI [3] was 3.66 µM. For the same compound, the GI50 [4] was 1.81 µM, the TGI [4] was 5.31 µM and the GI50 [5] was 1.56 µM. It also gave a TGI [5] of 3.67 µM, a GI50 [6] of 0.981 µM and a TGI [6] of 4.32 µM. For the same compound, the GI50 [7] was 1.27 µM, the TGI [7] was 3 µM and the GI50 [8] was 1.94 µM. The TGI [8] was 6.41 µM, the GI50 [9] was 2.91 µM and the TGI [9] was 13.1 µM. The GI50 [10] was 1.37 µM and the TGI [10] was 3.52 µM.
Work on `COc1cc(C(=O)/C=C/c2cc(-c3ccc4c(c3)OCO4)n[nH]2)cc(OC)c1OC` yielded a GI50 [1] of 2.02 µM, a TGI [1] of 4.07 µM and a GI50 [2] of 1.9 µM. It also gave a TGI [2] of 4.63 µM, a GI50 [3] of 1.95 µM and a TGI [3] of 6.75 µM. For the same compound, the GI50 [4] was 1.06 µM, the TGI [4] was 2.88 µM and the GI50 [5] was 1.81 µM. For the same compound, the TGI [5] was 3.77 µM, the GI50 [6] was 0.506 µM and the TGI [6] was 2.53 µM. The GI50 [7] was 1.31 µM, the TGI [7] was 2.94 µM and the GI50 [8] was 2.26 µM. It also gave a TGI [8] of 6.28 µM, a GI50 [9] of 2.34 µM and a TGI [9] of 11.7 µM. The GI50 [10] was 2.4 µM and the TGI [10] was 7.27 µM.
For `CCN(CC)CCNC(=O)c1cccc2c1-c1ccccc1C2=O`, the GI50 [1] was over 100 µM, the TGI [1] was over 100 µM and the GI50 [2] was 55.9 µM. It also gave a TGI [2] of over 100 µM, a GI50 [3] of over 100 µM and a TGI [3] of over 100 µM. It also gave a GI50 [4] of over 100 µM, a TGI [4] of over 100 µM and a GI50 [5] of over 100 µM. For the same compound, the TGI [5] was over 100 µM, the GI50 [6] was 66.3 µM and the TGI [6] was over 100 µM. The GI50 [7] was over 100 µM, the TGI [7] was over 100 µM and the GI50 [8] was over 100 µM. It also gave a TGI [8] of over 100 µM, a GI50 [9] of over 100 µM and a TGI [9] of over 100 µM. The GI50 [10] was over 100 µM and the TGI [10] was over 100 µM.
With `O/N=C(\CC(O)(C(F)(F)F)C(F)(F)F)c1cccs1` the TGI [1] was over 10 µM, the TGI [2] was over 10 µM and the TGI [3] was over 10 µM. The TGI [4] was over 10 µM, the TGI [5] was over 10 µM and the TGI [6] was over 10 µM. For the same compound, the TGI [7] was over 10 µM, the TGI [8] was over 10 µM and the TGI [9] was over 10 µM. It also gave a TGI [10] of over 10 µM.
`Cc1nc2sc(C(=O)Nc3cccc(Br)c3C)c(N)c2cc1C(O)c1ccccc1` (stereo not given) was tested, and the GI50 [1] was 0.0351 µM, the TGI [1] was 2.12 µM and the GI50 [2] was 0.0371 µM. The TGI [2] was 11.8 µM, the GI50 [3] was 0.0348 µM and the TGI [3] was 11.5 µM. It also gave a GI50 [4] of 0.0373 µM, a TGI [4] of 13.1 µM and a GI50 [5] of 0.0342 µM. It also gave a TGI [5] of 0.156 µM, a GI50 [6] of 0.0455 µM and a TGI [6] of 7.08 µM. For the same compound, the GI50 [7] was 0.0294 µM, the TGI [7] was 26 µM and the GI50 [8] was 0.0581 µM. It also gave a TGI [8] of 6.04 µM, a GI50 [9] of 0.0598 µM and a TGI [9] of over 100 µM. It also gave a GI50 [10] of 0.0279 µM and a TGI [10] of 13.4 µM.
With `O=C1/C(=C\c2ccc(F)cc2)CN(C(=O)c2ccccc2F)C/C1=C\c1ccc(F)cc1` the GI50 [1] was 1.81 µM, the TGI [1] was 3.32 µM and the GI50 [2] was 0.228 µM. For the same compound, the TGI [2] was 0.571 µM, the GI50 [3] was 1.05 µM and the TGI [3] was 2.58 µM. It also gave a GI50 [4] of 0.436 µM, a TGI [4] of 1.68 µM and a GI50 [5] of 2.51 µM. For the same compound, the TGI [5] was 6.71 µM, the GI50 [6] was 0.137 µM and the TGI [6] was 0.817 µM. The GI50 [7] was 1.78 µM, the TGI [7] was 3.54 µM and the GI50 [8] was 1.68 µM. For the same compound, the TGI [8] was 3.37 µM, the GI50 [9] was 1.58 µM and the TGI [9] was 3.55 µM. The GI50 [10] was 2.64 µM and the TGI [10] was 10.9 µM.
For `CN1CCC2(CC1)N=C(SCC(=O)Nc1cnc3ccccc3c1)C(c1ccc(Br)cc1)=N2`, the GI50 [1] was 1.85 µM, the TGI [1] was 3.42 µM and the GI50 [2] was 1.77 µM. The TGI [2] was 3.16 µM, the GI50 [3] was 1.86 µM and the TGI [3] was 3.76 µM. For the same compound, the GI50 [4] was 1.8 µM, the TGI [4] was 3.55 µM and the GI50 [5] was 2.03 µM. It also gave a TGI [5] of 4.28 µM, a GI50 [6] of 2.12 µM and a TGI [6] of 4.9 µM. It also gave a GI50 [7] of 1.77 µM, a TGI [7] of 4.29 µM and a GI50 [8] of 2.1 µM. For the same compound, the TGI [8] was 4.99 µM, the GI50 [9] was 2.58 µM and the TGI [9] was 7.83 µM. It also gave a GI50 [10] of 2.04 µM and a TGI [10] of 9.65 µM.
With `CC(C)(C)[Si](C)(C)OCC1OC(n2cnc3c(=O)[nH]cnc32)CC1O` (stereo not given) the TGI [1] was over 100 µM, the TGI [2] was over 100 µM and the TGI [3] was over 100 µM. For the same compound, the TGI [4] was over 100 µM, the TGI [5] was over 100 µM and the TGI [6] was over 100 µM. It also gave a TGI [7] of over 100 µM, a TGI [8] of over 100 µM and a TGI [9] of over 100 µM. It also gave a TGI [10] of over 100 µM.
With `N#C/C(=C\c1cc(O)c(O)c(O)c1)C(N)=O` the TGI [1] was over 100 µM, the TGI [2] was over 100 µM and the TGI [3] was over 100 µM. It also gave a TGI [4] of over 56 µM, a TGI [5] of over 100 µM and a TGI [6] of over 100 µM. The TGI [7] was over 100 µM, the TGI [8] was over 100 µM and the TGI [9] was over 100 µM. It also gave a TGI [10] of over 100 µM.
Work on `CC1(C)C(N2CCOCC2)CS1(=O)=O` (stereo not given) yielded a TGI [1] of over 10 µM, a TGI [2] of over 10 µM and a TGI [3] of over 10 µM. It also gave a TGI [4] of over 10 µM, a TGI [5] of over 10 µM and a TGI [6] of over 10 µM. It also gave a TGI [7] of over 10 µM, a TGI [8] of over 10 µM and a TGI [9] of over 10 µM. The TGI [10] was over 10 µM.
`C=CCn1c2ccccc2c2c3c(c4c5ccccc5n(CC=C)c4c21)C(=O)N(O)C3=O` was tested, and the GI50 [1] was 4.94 µM, the TGI [1] was 34 µM and the GI50 [2] was 2.29 µM. For the same compound, the TGI [2] was 12.5 µM, the GI50 [3] was 3.18 µM and the TGI [3] was 17 µM. The GI50 [4] was 0.674 µM, the TGI [4] was 29.9 µM and the GI50 [5] was 2.78 µM. For the same compound, the TGI [5] was 10.7 µM, the GI50 [6] was 2.51 µM and the TGI [6] was 10.6 µM. For the same compound, the GI50 [7] was 3.94 µM, the TGI [7] was 19.6 µM and the GI50 [8] was 3.36 µM. It also gave a TGI [8] of 13.2 µM, a GI50 [9] of 4.18 µM and a TGI [9] of over 100 µM. The GI50 [10] was 3.55 µM and the TGI [10] was 24.2 µM.
With `Cc1cc(O)ccc1C1=NN(c2ccc(S(N)(=O)=O)cc2)C(=O)CC1` the GI50 [1] was > 50 µM and 63.9 µM, the TGI [1] was over 100 µM and the GI50 [2] was 3.5 µM and 7.27 µM. The TGI [2] was 50 µM and > 100 µM, the GI50 [3] was 2.67 µM and 4.2 µM and the TGI [3] was 50 µM and > 100 µM. For the same compound, the GI50 [4] was 2.26 µM and 8.23 µM, the TGI [4] was 50 µM and > 100 µM and the GI50 [5] was 2.19 µM and 6.16 µM. The TGI [5] was 50 µM and > 100 µM, the GI50 [6] was 2.35 µM and 2.76 µM and the TGI [6] was 50 µM and 23.6 µM. The GI50 [7] was 6.31 µM and 13.7 µM, the TGI [7] was 50 µM and 42.1 µM and the GI50 [8] was 6.68 µM and 42.6 µM. The TGI [8] was 50 µM and > 100 µM, the GI50 [9] was 27.4 µM and 20.3 µM and the TGI [9] was 50 µM and > 100 µM. The GI50 [10] was 2.95 µM and 16.3 µM and the TGI [10] was 21.5 µM and 82.9 µM.
Compound `Cc1ccc(C[As+](c2ccccc2)(c2ccccc2)c2ccccc2)cc1` has a GI50 [1] of 0.645 µM, a TGI [1] of 19.6 µM and a GI50 [2] of 0.645 µM. The TGI [2] was over 36.2 µM, the GI50 [3] was 13 µM and the TGI [3] was over 100 µM. For the same compound, the GI50 [4] was 0.621 µM, the TGI [4] was 17.2 µM and the GI50 [5] was 0.674 µM. For the same compound, the TGI [5] was 8.36 µM, the GI50 [6] was 0.218 µM and the TGI [6] was 3.24 µM. For the same compound, the GI50 [7] was 1.62 µM, the TGI [7] was 11.4 µM and the GI50 [8] was 1.25 µM. For the same compound, the TGI [8] was 12.1 µM, the GI50 [9] was 0.978 µM and the TGI [9] was over 76.8 µM. The GI50 [10] was 1.1 µM and the TGI [10] was 10.3 µM.
`C/C=C(\N=C=S)C(=O)OC1C(COC(C)=O)OC([C@]2(O)CC(=O)C(=N)C(C(=O)O)=C2O)C(O)C1OC1CC(OC)C(O)([C@@H](C)OC(=O)[C@@H](C)CC)C(C)O1` (stereo not given in full) gave a TGI [1] of 40.1 µM, a TGI [2] of 21.9 µM and a TGI [3] of 37.1 µM. The TGI [4] was 38.4 µM, the TGI [5] was 47.5 µM and the TGI [6] was 7.19 µM. It also gave a TGI [7] of 15.5 µM, a TGI [8] of 40 µM and a TGI [9] of 31.5 µM. It also gave a TGI [10] of 34.8 µM.
`O=C(/C=C/c1ccccc1)c1cccc2ccccc12` gave a GI50 [1] of 2.65 µM, a TGI [1] of 6.81 µM and a GI50 [2] of 1.96 µM. The TGI [2] was 4.1 µM, the GI50 [3] was 3.2 µM and the TGI [3] was 13.4 µM. For the same compound, the GI50 [4] was 3.07 µM, the TGI [4] was 11.1 µM and the GI50 [5] was 1.84 µM. For the same compound, the TGI [5] was 3.86 µM, the GI50 [6] was 1.93 µM and the TGI [6] was 5.86 µM. For the same compound, the GI50 [7] was 2.38 µM, the TGI [7] was 8.04 µM and the GI50 [8] was 4.29 µM. The TGI [8] was 15.4 µM, the GI50 [9] was 4.1 µM and the TGI [9] was 15.3 µM. It also gave a GI50 [10] of 2.19 µM and a TGI [10] of 7.27 µM.
Compound `Brc1ccccc2cc(-c3ccccc3)nc1-2` has a TGI [1] of 10.8 µM, a TGI [2] of 10.5 µM and a TGI [3] of 17.1 µM. It also gave a TGI [4] of 64.8 µM, a TGI [5] of 73.5 µM and a TGI [6] of 29.7 µM. It also gave a TGI [7] of 16.7 µM, a TGI [8] of 19.4 µM and a TGI [9] of 40.7 µM. For the same compound, the TGI [10] was 51.5 µM.

From PubChem BioAssay (NCI)
